Measurements as given in article PMC13524802, “Unique adaptations in sulfatases underpin colonic mucin degradation by Akkermansia muciniphila” (Nature Microbiology, 2026).

Columns and labels:
[1] = target: T1, Amuc1755^4S-Gal (Akkermansia muciniphila, UniProt B2UML7, E464G); assay: HPAEC and TLC desulfation assay; type: biochemical; settings: overnight, 37 °C
T1 construct: gene Amuc_1755; recombinant, N-terminal His6 (pETite), E. coli TUNER (DE3); monomer

[2] = target: T2, Amuc1755^4S-Gal (Akkermansia muciniphila, UniProt B2UML7, E464A); assay: HPAEC and TLC desulfation assay; type: biochemical; settings: overnight, 37 °C
T2 construct: gene Amuc_1755; recombinant, N-terminal His6 (pETite), E. coli TUNER (DE3); monomer

[3] = target: Amuc1033^6S-GlcNAc (Akkermansia muciniphila) (UniProt B2UQX4); assay: SEC-MALS; size-exclusion chromatography coupled to light scattering (90°) and refractive index; Agilent BioSEC Advance 300 Å column; 20 mM Tris-HCl pH 7.4, 150 mM NaCl; calibrated with BSA
[4] = target: T3, Amuc0491^3S-Gal/GalNAc (Akkermansia muciniphila, UniProt B2UNV9); assay: HPAEC and microfluidic desulfation assays; type: biochemical; settings: 5 mM CaCl2, 150 mM NaCl; kinetics (kcat/Km only) with labelled compound
T3 construct: gene Amuc_0491; recombinant, N-terminal His6 (pETite), E. coli TUNER (DE3)
T3 sequence (B2UNV9 entry or part of it): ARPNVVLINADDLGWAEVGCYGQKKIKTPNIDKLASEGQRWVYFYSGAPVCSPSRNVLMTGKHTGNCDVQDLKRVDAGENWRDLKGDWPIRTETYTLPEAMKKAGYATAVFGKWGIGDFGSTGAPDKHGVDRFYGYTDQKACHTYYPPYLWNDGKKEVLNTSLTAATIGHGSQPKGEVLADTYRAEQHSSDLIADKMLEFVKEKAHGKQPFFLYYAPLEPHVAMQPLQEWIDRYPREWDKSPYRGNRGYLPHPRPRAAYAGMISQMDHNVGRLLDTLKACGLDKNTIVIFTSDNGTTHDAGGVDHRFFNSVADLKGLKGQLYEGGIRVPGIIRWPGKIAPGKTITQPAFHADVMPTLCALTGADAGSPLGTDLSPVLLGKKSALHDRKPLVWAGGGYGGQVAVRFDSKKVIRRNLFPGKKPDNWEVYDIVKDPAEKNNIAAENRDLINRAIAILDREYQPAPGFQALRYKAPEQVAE

T1 sequence (B2UML7 entry or part of it E464G): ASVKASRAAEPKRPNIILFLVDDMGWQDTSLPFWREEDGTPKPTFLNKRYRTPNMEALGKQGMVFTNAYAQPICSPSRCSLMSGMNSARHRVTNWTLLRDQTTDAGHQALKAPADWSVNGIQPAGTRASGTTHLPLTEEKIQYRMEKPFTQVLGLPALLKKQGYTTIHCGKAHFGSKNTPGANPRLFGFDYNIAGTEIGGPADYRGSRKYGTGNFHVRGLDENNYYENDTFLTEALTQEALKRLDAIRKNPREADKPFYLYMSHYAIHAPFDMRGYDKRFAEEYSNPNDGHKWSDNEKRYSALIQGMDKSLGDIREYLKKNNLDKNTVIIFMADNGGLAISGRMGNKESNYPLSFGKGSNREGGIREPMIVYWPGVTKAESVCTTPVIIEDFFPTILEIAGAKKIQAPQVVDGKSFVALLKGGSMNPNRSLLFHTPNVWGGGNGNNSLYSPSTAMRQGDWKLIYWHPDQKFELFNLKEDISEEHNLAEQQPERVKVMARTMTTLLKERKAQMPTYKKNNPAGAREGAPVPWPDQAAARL
T2 sequence (B2UML7 entry or part of it E464A): as the sequence (B2UML7 entry or part of it E464G) above, with G441A counted along it

stoichiometry N [3]	Compound	HPAEC and TLC desulfation assay [1]	HPAEC and TLC desulfation assay [2]	HPAEC and microfluidic desulfation assays [4]
–	CC(=O)N[C@H]1C(O)O[C@H](CO)[C@H](OS(=O)(=O)O)[C@@H]1O (stereo partly drawn) [4S-GalNAc, O4 sulfated N-acetyl-D-galactosamine]	Mutation of Glu464 to Ala and Gly enabled the Amuc1755^4S-Gal to work on 4S-GalNAc	Mutation of Glu464 to Ala and Gly enabled the Amuc1755^4S-Gal to work on 4S-GalNAc	–
2	Amuc1033^6S-GlcNAc (from UniProt B2UQX4 1-581) (enzyme)	–	–	–
–	O=S(=O)(O)O[C@H]1[C@@H](O)[C@@H](CO)OC(O)[C@@H]1O (stereo partly drawn) [3S-Gal, O3 sulfated D-galactose]	–	–	which desulfate O3 sulfated D-galactose (3S-Gal)-containing substrates
–	O=S(=O)(O)O[C@@H]1[C@H](O)[C@@H](O)C(O)O[C@@H]1CO (stereo partly drawn) [4S-Gal, O4 sulfated D-galactose]	but reduced activity on 4S-Gal	but reduced activity on 4S-Gal	–
–	CC(=O)N[C@H]1C(O)O[C@H](CO)[C@H](O)[C@@H]1OS(=O)(=O)O (stereo partly drawn) [3S-GalNAc, O3 sulfated N-acetyl-D-galactosamine]	–	–	only Amuc0491^3S-Gal/GalNAc was capable of desulfating O3 sulfatedN-acetyl-D-galactosamine (3S-GalNAc)
